Test results from PubChem BioAssay (NCI).
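Each compound was tested at five concentrations against cells in 96-well plates for 48 hours. GI50 = concentration required for 50% inhibition of growth. TGI: concentration producing complete growth inhibition.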

Tests used:
Experiment in all cases: NCI tumour cell line growth inhibition, 48 h
[1] = system: SF-295 CNS
[2] = system: OVCAR-3 ovarian
[3] = system: SF-268 CNS
[4] = system: K-562 leukemia
[5] = system: DLD-1 colon
[6] = system: A549 NSCLC
[7] = system: CCRF-CEM leukemia
[8] = system: CAKI-1 renal
[9] = system: MOLT-4 leukemia
[10] = system: HOP-62 NSCLC
[11] = system: LOX IMVI melanoma
[12] = system: 786-0 renal
[13] = system: HOP-92 NSCLC
[14] = system: UACC-62 melanoma
[15] = system: RXF 393 renal
[16] = system: IGROV1 ovarian
[17] = system: OVCAR-8 ovarian
[18] = system: KM20L2 colon
[19] = system: MALME-3M melanoma
[20] = system: SK-MEL-5 melanoma
[21] = system: SK-OV-3 ovarian
[22] = system: SW-620 colon
[23] = system: EKVX NSCLC
[24] = system: HL-60(TB) leukemia
[25] = system: SNB-19 CNS
[26] = system: SNB-78 CNS
[27] = system: SN12C renal
[28] = system: OVCAR-5 ovarian
[29] = system: SF-539 CNS
[30] = system: HCT-116 colon
[31] = system: SK-MEL-28 melanoma
[32] = system: HCT-15 colon
[33] = system: UACC-257 melanoma
[34] = system: LXFL 529 NSCLC
[35] = system: NCI-H23 lung
[36] = system: HCC-2998 colon
[37] = system: RPMI-8226 leukemia
[38] = system: NCI-H460 lung
[39] = system: SK-MEL-2 melanoma
[40] = system: M14 melanoma
[41] = system: OVCAR-4 ovarian
[42] = system: DMS 273 small cell lung
[43] = system: ACHN renal
[44] = system: U251 CNS
[45] = system: COLO 205 colon
[46] = system: SR leukemia
[47] = system: TK-10 renal
[48] = system: SNB-75 CNS
[49] = system: HT29 colon
[50] = system: HOP-18 NSCLC
[51] = system: KM12 colon
[52] = system: NCI-H226 lung
[53] = system: UO-31 renal
[54] = system: MDA-MB-435
[55] = system: BT-549 breast
[56] = system: A498 renal
[57] = system: DU-145 prostate
[58] = system: DMS 114 small cell lung
[59] = system: M19-MEL melanoma
[60] = system: MCF7 breast
[61] = system: PC-3 prostate
[62] = system: MDA-MB-231 breast

SMILES: Cc1nn[n-]n1.N.N.N.N.N.[Cl-].[Co+3]
- GI50 [1]: > 100 µM
- TGI [1]: > 100 µM
- GI50 [2]: > 100 µM
- TGI [2]: > 100 µM
- GI50 [3]: > 100 µM
- TGI [3]: > 100 µM
- GI50 [4]: > 100 µM
- TGI [4]: > 100 µM
- GI50 [5]: > 100 µM
- TGI [5]: > 100 µM
- GI50 [6]: > 100 µM
- TGI [6]: > 100 µM
- GI50 [7]: > 100 µM
- TGI [7]: > 100 µM
- GI50 [8]: > 100 µM
- TGI [8]: > 100 µM
- GI50 [9]: > 100 µM
- TGI [9]: > 100 µM
- GI50 [10]: > 100 µM
- TGI [10]: > 100 µM
- GI50 [11]: > 100 µM
- TGI [11]: > 100 µM
- GI50 [12]: > 100 µM
- TGI [12]: > 100 µM
- GI50 [13]: > 100 µM
- TGI [13]: > 100 µM
- GI50 [14]: > 100 µM
- TGI [14]: > 100 µM
- GI50 [15]: > 100 µM
- TGI [15]: > 100 µM
- GI50 [16]: > 100 µM
- TGI [16]: > 100 µM
- GI50 [17]: > 100 µM
- TGI [17]: > 100 µM
- GI50 [18]: > 100 µM
- TGI [18]: > 100 µM
- GI50 [19]: > 100 µM
- TGI [19]: > 100 µM
- GI50 [20]: > 100 µM
- TGI [20]: > 100 µM
- GI50 [21]: > 100 µM
- TGI [21]: > 100 µM
- GI50 [22]: > 100 µM
- TGI [22]: > 100 µM
- GI50 [23]: > 100 µM
- TGI [23]: > 100 µM
- GI50 [24]: > 100 µM
- TGI [24]: > 100 µM
- GI50 [25]: > 100 µM
- TGI [25]: > 100 µM
- GI50 [26]: > 100 µM
- TGI [26]: > 100 µM
- GI50 [27]: > 100 µM
- TGI [27]: > 100 µM
- GI50 [28]: > 100 µM
- TGI [28]: > 100 µM
- GI50 [29]: > 100 µM
- TGI [29]: > 100 µM
- GI50 [30]: > 100 µM
- TGI [30]: > 100 µM
- GI50 [31]: > 100 µM
- TGI [31]: > 100 µM
- GI50 [32]: > 100 µM
- TGI [32]: > 100 µM
- GI50 [33]: > 100 µM
- TGI [33]: > 100 µM
- GI50 [34]: > 100 µM
- TGI [34]: > 100 µM
- GI50 [35]: > 100 µM
- TGI [35]: > 100 µM
- GI50 [36]: > 100 µM
- TGI [36]: > 100 µM
- GI50 [37]: > 100 µM
- TGI [37]: > 100 µM
- GI50 [38]: > 100 µM
- TGI [38]: > 100 µM
- GI50 [39]: > 100 µM
- TGI [39]: > 100 µM
- GI50 [40]: > 100 µM
- TGI [40]: > 100 µM
- GI50 [41]: > 100 µM
- TGI [41]: > 100 µM
- GI50 [42]: > 100 µM
- TGI [42]: > 100 µM
- GI50 [43]: > 100 µM
- TGI [43]: > 100 µM
- GI50 [44]: > 100 µM
- TGI [44]: > 100 µM
- GI50 [45]: > 100 µM
- TGI [45]: > 100 µM
- GI50 [46]: > 100 µM
- TGI [46]: > 100 µM
- GI50 [47]: > 100 µM
- TGI [47]: > 100 µM
- GI50 [48]: > 100 µM
- TGI [48]: > 100 µM
- GI50 [49]: > 100 µM
- TGI [49]: > 100 µM
- GI50 [50]: > 100 µM
- TGI [50]: > 100 µM
- GI50 [51]: > 100 µM
- TGI [51]: > 100 µM
- GI50 [52]: > 100 µM
- TGI [52]: > 100 µM
- GI50 [53]: > 100 µM
- TGI [53]: > 100 µM

SMILES: CCc1ccc(NC(=O)NC(=O)c2ccccc2[N+](=O)[O-])cc1Oc1ncc(Cl)cn1
- TGI [54]: 0.0332 µM
- TGI [2]: 13.9 µM
- TGI [3]: > 16.9 µM
- TGI [4]: > 100 µM
- TGI [5]: > 100 µM
- TGI [6]: > 100 µM
- TGI [7]: > 100 µM
- TGI [9]: > 100 µM
- TGI [10]: 75.3 µM
- TGI [55]: 35.7 µM
- TGI [11]: 14.5 µM
- TGI [12]: 1.01 µM
- TGI [13]: > 100 µM
- TGI [14]: > 100 µM
- TGI [15]: 73.4 µM
- TGI [16]: > 100 µM
- TGI [17]: > 100 µM
- TGI [18]: 0.0481 µM
- TGI [19]: > 100 µM
- TGI [20]: 0.0327 µM
- TGI [56]: 9.1 µM
- TGI [21]: > 100 µM
- TGI [22]: > 100 µM
- TGI [57]: > 100 µM
- TGI [23]: > 100 µM
- TGI [24]: 0.0247 µM
- TGI [25]: > 100 µM
- TGI [26]: > 100 µM
- TGI [58]: > 100 µM
- TGI [27]: > 100 µM
- TGI [28]: > 100 µM
- TGI [59]: > 100 µM
- TGI [30]: 3.62 µM
- TGI [31]: > 4.64 µM
- TGI [32]: > 100 µM
- TGI [33]: > 100 µM
- TGI [34]: > 100 µM
- TGI [35]: > 100 µM
- TGI [36]: 0.0695 µM
- TGI [37]: > 4.64 µM
- TGI [38]: 0.0508 µM
- TGI [40]: > 100 µM
- TGI [41]: > 100 µM
- TGI [43]: > 100 µM
- TGI [60]: > 100 µM
- TGI [44]: > 100 µM
- TGI [45]: 0.106 µM
- TGI [46]: > 100 µM
- TGI [61]: > 100 µM
- TGI [47]: > 100 µM
- TGI [62]: 52.3 µM
- TGI [49]: 0.854 µM
- TGI [50]: > 100 µM
- TGI [51]: 0.728 µM
- TGI [52]: 0.0796 µM
- TGI [53]: 45.5 µM
